Assay [1] relates to AMPKa1, AMPKa2. Briefly: KiNativ, MOLM13 live cells. Type of assay: cell-based, human. The following applies: 100 nM, 2 hours. How it is done:
(§1) Samples were analyzed by KiNativ in situ kinase profiling by ActivX Biosciences.

In assay [2] the test system is CK1g1, CK1g2, CK1g3. The assay can be described thus: KiNativ, MOLM13 live cells. Type of assay: cell-based, human. The note with it: 100 nM, 2 hours; ATP Loop. How it is done: as §1
Assay [3] concerns IKKe, TBK1. The assay can be described thus: KiNativ, MOLM13 live cells. The note with it: 100 nM, 2 hours; Lys2. The class given is cell-based, human. The protocol:
as §1

The subject of assay [4] is MST1, MST2. The assay can be described thus: KiNativ, MOLM13 live cells. The following applies: 100 nM, 2 hours; Lys2. Type of assay: cell-based, human. How it is done:
as §1

The subject of assay [5] is Wnk1, Wnk2, Wnk4. Briefly: KiNativ, MOLM13 live cells. The class given is cell-based, human. The following applies: 100 nM, 2 hours; Activation Loop. The protocol:
as §1

In assay [6] the target is AGK (Homo sapiens, UniProt Q53H12). Briefly: KiNativ, OCI cells live cell. The class given is cell-based. The note with it: 2 h, labeling site ATP, peptide […].
AGK, sequence (Q53H12 whole entry): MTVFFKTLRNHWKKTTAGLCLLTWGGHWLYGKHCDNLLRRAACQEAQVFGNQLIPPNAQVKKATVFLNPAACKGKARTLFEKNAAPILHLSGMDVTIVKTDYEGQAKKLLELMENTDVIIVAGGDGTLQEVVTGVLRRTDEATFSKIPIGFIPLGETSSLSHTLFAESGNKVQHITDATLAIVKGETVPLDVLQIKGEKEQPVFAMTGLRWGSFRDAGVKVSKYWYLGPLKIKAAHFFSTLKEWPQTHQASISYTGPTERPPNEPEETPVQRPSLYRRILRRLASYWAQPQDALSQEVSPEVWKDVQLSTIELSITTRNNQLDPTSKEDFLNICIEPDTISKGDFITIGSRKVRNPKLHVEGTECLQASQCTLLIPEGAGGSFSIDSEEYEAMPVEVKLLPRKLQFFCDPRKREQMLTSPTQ
Assay [7] has as its target AurB (Homo sapiens, UniProt Q96GD4). The assay can be described thus: KiNativ, OCI cells live cell. Type of assay: cell-based. The following applies: 2 h, labeling site Lys1, peptide […].
Assay [8] deals with T1, LATS2 (Homo sapiens, UniProt Q9NRM7).
T1 sequence (Q9NRM7 1-1088): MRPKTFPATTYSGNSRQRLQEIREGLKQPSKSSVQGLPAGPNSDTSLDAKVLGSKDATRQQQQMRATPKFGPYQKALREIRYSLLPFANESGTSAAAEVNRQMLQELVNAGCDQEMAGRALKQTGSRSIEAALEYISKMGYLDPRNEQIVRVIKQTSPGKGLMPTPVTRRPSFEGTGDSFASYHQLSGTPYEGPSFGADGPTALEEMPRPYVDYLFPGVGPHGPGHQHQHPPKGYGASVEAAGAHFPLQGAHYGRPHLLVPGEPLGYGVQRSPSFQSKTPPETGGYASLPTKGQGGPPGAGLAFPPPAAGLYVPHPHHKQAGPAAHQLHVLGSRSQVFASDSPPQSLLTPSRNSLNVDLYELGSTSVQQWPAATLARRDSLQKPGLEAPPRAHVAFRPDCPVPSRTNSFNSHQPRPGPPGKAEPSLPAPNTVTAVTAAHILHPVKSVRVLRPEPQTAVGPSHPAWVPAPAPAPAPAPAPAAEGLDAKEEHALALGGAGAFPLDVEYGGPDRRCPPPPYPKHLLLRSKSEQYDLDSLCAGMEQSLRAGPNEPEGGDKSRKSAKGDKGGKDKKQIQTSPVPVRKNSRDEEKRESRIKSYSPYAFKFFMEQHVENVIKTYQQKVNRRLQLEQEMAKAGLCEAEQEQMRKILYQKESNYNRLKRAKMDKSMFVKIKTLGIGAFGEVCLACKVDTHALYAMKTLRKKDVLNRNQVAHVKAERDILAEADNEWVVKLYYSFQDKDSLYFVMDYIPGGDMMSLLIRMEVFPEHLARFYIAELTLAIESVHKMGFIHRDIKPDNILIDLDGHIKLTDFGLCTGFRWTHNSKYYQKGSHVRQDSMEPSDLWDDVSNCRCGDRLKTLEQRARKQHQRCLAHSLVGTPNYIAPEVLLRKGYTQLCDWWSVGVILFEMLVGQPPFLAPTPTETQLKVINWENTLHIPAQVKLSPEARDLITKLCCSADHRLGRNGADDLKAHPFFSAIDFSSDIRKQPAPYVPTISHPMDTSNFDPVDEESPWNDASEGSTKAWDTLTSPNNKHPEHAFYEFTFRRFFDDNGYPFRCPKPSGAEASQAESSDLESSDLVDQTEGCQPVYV
Briefly: KiNativ, OCI cells live cell. Type of assay: cell-based.

The target of assay [9] is PLK1 (Homo sapiens, UniProt P53350). The assay can be described thus: KiNativ, OCI cells live cell. The following applies: 2 h. Type of assay: cell-based.
PLK1, sequence (P53350 whole entry): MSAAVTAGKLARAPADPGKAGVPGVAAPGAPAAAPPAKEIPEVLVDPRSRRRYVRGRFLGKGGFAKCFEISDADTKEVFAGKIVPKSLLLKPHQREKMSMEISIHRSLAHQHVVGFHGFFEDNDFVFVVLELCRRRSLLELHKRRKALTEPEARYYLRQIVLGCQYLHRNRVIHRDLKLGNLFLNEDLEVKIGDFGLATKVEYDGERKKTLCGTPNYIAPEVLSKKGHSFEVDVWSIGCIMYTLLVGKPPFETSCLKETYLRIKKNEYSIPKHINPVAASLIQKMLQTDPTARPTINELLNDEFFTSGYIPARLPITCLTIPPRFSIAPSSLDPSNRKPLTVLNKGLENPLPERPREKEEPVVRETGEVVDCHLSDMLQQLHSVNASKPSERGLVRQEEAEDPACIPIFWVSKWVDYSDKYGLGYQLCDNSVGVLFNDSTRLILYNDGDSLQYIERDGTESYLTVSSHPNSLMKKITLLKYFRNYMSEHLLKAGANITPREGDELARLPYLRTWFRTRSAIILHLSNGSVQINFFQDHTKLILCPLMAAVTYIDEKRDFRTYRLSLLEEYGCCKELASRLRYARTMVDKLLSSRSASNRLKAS
In assay [10] the target is TAK1 (Homo sapiens, UniProt O43318). The assay can be described thus: KiNativ, OCI cells live cell. Type of assay: cell-based. The following applies: 2 h, labeling site Lys2, peptide […].
TAK1, sequence (O43318 whole entry): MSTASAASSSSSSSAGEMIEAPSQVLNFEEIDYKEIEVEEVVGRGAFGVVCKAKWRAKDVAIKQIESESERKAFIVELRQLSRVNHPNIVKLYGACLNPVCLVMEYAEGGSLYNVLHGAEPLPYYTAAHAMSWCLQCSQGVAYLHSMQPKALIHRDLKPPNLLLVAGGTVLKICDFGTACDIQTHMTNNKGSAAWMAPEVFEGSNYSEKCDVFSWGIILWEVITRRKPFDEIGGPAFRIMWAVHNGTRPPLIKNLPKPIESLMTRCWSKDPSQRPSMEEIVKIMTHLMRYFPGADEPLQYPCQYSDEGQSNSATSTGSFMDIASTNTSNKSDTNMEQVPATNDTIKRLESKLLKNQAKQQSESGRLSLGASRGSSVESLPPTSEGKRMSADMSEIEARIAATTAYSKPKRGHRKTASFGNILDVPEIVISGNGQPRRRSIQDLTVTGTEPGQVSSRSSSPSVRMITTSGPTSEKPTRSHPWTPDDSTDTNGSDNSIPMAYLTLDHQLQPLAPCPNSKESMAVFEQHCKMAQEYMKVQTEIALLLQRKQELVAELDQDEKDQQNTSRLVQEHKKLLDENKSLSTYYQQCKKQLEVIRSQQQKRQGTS
The target in assay [11] is T2, ULK1 (Homo sapiens, UniProt O75385).
T2 sequence (O75385 1-1050): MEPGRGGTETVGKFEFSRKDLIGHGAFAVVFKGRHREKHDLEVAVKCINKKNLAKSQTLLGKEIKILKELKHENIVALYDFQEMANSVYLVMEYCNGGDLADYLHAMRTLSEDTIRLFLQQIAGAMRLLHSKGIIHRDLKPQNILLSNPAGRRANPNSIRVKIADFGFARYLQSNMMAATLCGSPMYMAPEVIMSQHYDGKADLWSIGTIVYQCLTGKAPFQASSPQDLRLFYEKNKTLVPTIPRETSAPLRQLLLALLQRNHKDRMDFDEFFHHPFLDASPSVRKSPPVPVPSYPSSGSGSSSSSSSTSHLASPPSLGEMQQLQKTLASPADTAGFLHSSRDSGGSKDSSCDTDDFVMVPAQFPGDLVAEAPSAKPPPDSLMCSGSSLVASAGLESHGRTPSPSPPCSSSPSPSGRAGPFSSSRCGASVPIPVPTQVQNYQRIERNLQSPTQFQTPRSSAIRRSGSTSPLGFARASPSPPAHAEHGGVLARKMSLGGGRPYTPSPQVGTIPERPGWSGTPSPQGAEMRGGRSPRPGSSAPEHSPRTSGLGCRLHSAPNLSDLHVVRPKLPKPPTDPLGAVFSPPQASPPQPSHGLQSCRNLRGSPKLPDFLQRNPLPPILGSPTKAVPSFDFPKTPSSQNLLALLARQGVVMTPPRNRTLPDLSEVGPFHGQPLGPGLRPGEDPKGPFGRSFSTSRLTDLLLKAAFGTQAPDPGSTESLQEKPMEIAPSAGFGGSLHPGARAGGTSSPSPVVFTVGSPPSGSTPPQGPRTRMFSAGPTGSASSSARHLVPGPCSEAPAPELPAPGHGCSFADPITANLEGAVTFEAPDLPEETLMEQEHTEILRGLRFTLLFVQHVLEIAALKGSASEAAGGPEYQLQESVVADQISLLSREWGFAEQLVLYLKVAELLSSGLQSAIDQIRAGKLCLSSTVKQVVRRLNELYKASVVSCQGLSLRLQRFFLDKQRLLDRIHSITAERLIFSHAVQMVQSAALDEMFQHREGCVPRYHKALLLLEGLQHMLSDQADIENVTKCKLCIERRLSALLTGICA
The assay can be described thus: KiNativ, OCI cells live cell. The class given is cell-based.

Assay [12] concerns Wnk1, Wnk2, Wnk4. The assay can be described thus: KiNativ, OCI cells live cell. Type of assay: cell-based, human. The note with it: labeling site Activation Loop, peptide IGDLGLATLKR

The term inhibition denotes the drop in the measured response relative to a control, in per cent. A word on the Inhibition: it is the drop in the measured response relative to a control, in per cent.

AurB, sequence (Q96GD4 whole entry): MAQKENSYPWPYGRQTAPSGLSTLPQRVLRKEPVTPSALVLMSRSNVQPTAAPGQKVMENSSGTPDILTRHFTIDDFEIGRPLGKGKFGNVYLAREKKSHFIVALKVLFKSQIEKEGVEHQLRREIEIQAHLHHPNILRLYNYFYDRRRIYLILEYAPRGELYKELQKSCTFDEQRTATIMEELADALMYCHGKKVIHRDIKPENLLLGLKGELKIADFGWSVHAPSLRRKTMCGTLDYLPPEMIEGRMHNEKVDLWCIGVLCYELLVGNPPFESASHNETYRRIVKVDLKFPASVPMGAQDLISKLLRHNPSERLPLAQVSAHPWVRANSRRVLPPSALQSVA

Regarding `CN1CCN(Cc2ccc(Nc3ncc(Cl)c(Nc4ccccc4S(=O)(=O)N(C)C)n3)cc2)CC1` [TP-0903], the “Inhibition vs DMSO” value is 19.6% in assay [1] (Lys1); 33.8% in assay [1] (Lys2); -28.7% in [2]; 74.5% in [3]; 41.2% in assay [4]; -35.0% in assay [5]. Moreover, the inhibition at 0.1 µM in assay [6] is -26.9%; in assay [7], 83%; in [9] (labeling site Lys1, peptide CFEISDADTKEVFAGKIVPK) it was -5%; in assay [9] (labeling site Lys2, peptide DLKLGNLFLNEDLEVK) it was -4.3%; in assay [10], -11.5%. Also, the Inhibition in assay [8] (labeling site Lys1, peptide VDTHALYAMKTLR) was -1.0%; in [8] (labeling site Lys2, peptide DIKPDNILIDLDGHIK), -30.2%; in assay [11] (labeling site Lys1, peptide HDLEVAVKCINKK) it was 23.3%; in [11] (labeling site Lys2, peptide DLKPQNILLSNPAGR) it was 59.5%; in assay [12], -23.7%.

The values are drawn from publication PMC7714403 (JCI Insight, 2020).
